Measurements from patent US12376590B2, “Compositions comprising pyridine carboxylate herbicides and azole carboxylate safeners” (Corteva Agriscience LLC, priority 2018, dated 2025).

Experiments:
Experiment in all cases: Greenhouse postemergence herbicidal safening trial, visual injury after 20-22 d
[1] = system: Russian thistle (SASKR); assay type: in vivo, Salsola kali; conditions: applied alone
Text: (§1) Greenhouse Trial Methodology—Evaluation of Postemergence Herbicidal Safening in Crops
(§2) Seeds of the desired test plant species were planted in a 90:10% v/v (volume/volume) mixture of PRO-MIX® BX (Premier Tech Horticulture, Quakertown, PA, USA) and PROFILE® GREENS GRADE™ (Profile Products LLC, Buffalo Grove, IL, USA) planting mixture, which typically has a pH of 5.2 to 6.2 and an organic matter content of at least 50 percent, in plastic pots with a surface area of 103.2 square centimeters (cm^2). When required to ensure good germination and healthy plants, a fungicide treatment and/or other chemical or physical treatment was applied. The plants were grown for 7-36 days (d) in a greenhouse with an approximate 14-hour (h) photo-period which was maintained at about 23° C. during the day and 22° C. during the night. Nutrients and water were added on a regular basis and supplemental lighting was provided with overhead metal halide 1000-Watt lamps as necessary. The plants were employed for testing when they reached the second or third true leaf stage.
(§3) Emulsifiable concentrates of each of each pyridine carboxylate herbicide (Compound A or Compound B) were prepared at 100 grams acid equivalent per liter (g ae/L). An aliquot of each emulsifiable concentrate was placed in a 25 mL glass vial and diluted with an aqueous mixture of 1.25% (v/v) ACTIROB® B esterified rapeseed oil (Bayer Crop Science, Research Triangle Park, NC, USA) or MSO® Concentrate with LECI-TECH® methylated soybean oil (Loveland Products, Loveland, CO, USA) to obtain concentrated stock solutions at the highest application rate for each herbicide, based upon a 12 milliliter (mL) application volume at a rate of 187 liters per hectare (L/ha). The concentrated stock solutions were further diluted with an aqueous mixture of 1.25% v/v ACTIROB® B or MSO® Concentrate with LECI-TECH® to obtain stock solutions at reduced application rates for each herbicide. Spray solutions of the herbicide combinations (Compound A or Compound B plus safener) were prepared by adding weighed amounts or aliquots of the azole carboxylate safener to the stock solutions of Compound A or Compound B to form 12-mL spray solutions in two-way combinations.
(§4) The spray solutions were applied to the plant material with an overhead Mandel track sprayer equipped with 8002E nozzles calibrated to deliver 187 L/ha over an application area of 0.503 square meters (m^2) at a spray height of 18 inches (43 centimeters (cm)) above the average plant canopy. Control plants were sprayed in the same manner with the solvent blank. All herbicide (component a) application rates are given as “g ae/ha” and all safener (component b) application rates are given as “g ai/ha.”
(§5) The treated plants and control plants were placed in a greenhouse as described above and watered by sub-irrigation to prevent wash-off of the test compounds. After 20-22 d, the condition of the test plants as compared with that of the control plants was determined visually and scored on a scale of 0 to 100 percent where 0 corresponds to no injury and 100 corresponds to complete kill.

[2] = system: blackgrass (ALOMY); assay type: in vivo, Alopecurus myosuroides
Text: as §1, §2, §3, §4, §5

[3] = system: velvetleaf (ABUTH); assay type: in vivo, Abutilon theophrasti
Text: as §1, §2, §3, §4, §5

[4] = system: nutsedge (CYPES); assay type: in vivo, Cyperus esculentus
Text: as §1, §2, §3, §4, §5

[5] = system: common rice (ORYSA); assay type: in vivo, Oryza sativa
Text: as §1, §2, §3, §4, §5

[6] = system: Italian ryegrass (LOLMU); assay type: in vivo, Lolium multiflorum
Text: as §1, §2, §3, §4, §5

[7] = system: giant foxtail (SETFA); assay type: in vivo, Setaria faberi
Text: as §1, §2, §3, §4, §5

[8] = system: soybean (GLXMA); assay type: in vivo, Glycine max
Text: as §1, §2, §3, §4, §5

[9] = system: winter wheat (TRZAW); assay type: in vivo, Triticum aestivum
Text: as §1, §2, §3, §4, §5

[10] = system: spring wheat (TRZAS); assay type: in vivo, Triticum aestivum; conditions: applied alone
Text: as §1, §2, §3, §4, §5

[11] = system: ivyleaf morningglory (IPOHE); assay type: in vivo, Ipomoea hederacea
Text: as §1, §2, §3, §4, §5

[12] = system: herbicide-resistant kochia (KCHSC-R); assay type: in vivo, Kochia scoparia
Text: as §1, §2, §3, §4, §5

[13] = system: kochia (KCHSC); assay type: in vivo, Kochia scoparia
Text: as §1, §2, §3, §4, §5

Measured: % visual injury Ob

CCOC(=O)C1=NN(c2ccc(Cl)cc2Cl)C(C)(C(=O)OCC)C1 (stereo not shown) [Mefenpyr-diethyl, mefenpyr-diethyl]
0%: [1]; 10 g/ha | [1]; 20 g/ha | [1]; 40 g/ha | [2]; Mefenpyr-diethyl 20 g/ha | [2]; Mefenpyr-diethyl 40 g/ha | [2]; Mefenpyr-diethyl 80 g/ha | [3]; Mefenpyr-diethyl 20 g/ha | [3]; Mefenpyr-diethyl 40 g/ha | [3]; Mefenpyr-diethyl 80 g/ha | [4]; Mefenpyr-diethyl 20 g/ha | [4]; Mefenpyr-diethyl 40 g/ha | [4]; Mefenpyr-diethyl 80 g/ha | [4]; applied alone, 20 g/ha | [4]; applied alone, 40 g/ha | [4]; applied alone, 80 g/ha | [4]; applied alone, 120 g/ha | [5]; Mefenpyr-diethyl 20 g/ha | [5]; Mefenpyr-diethyl 40 g/ha | [5]; Mefenpyr-diethyl 80 g/ha | [6]; Mefenpyr-diethyl 20 g/ha | [6]; Mefenpyr-diethyl 40 g/ha | [6]; Mefenpyr-diethyl 80 g/ha | [7]; Mefenpyr-diethyl 20 g/ha | [7]; Mefenpyr-diethyl 40 g/ha | [7]; Mefenpyr-diethyl 80 g/ha | [8]; Mefenpyr-diethyl 20 g/ha | [8]; Mefenpyr-diethyl 40 g/ha | [8]; Mefenpyr-diethyl 80 g/ha | [9]; Mefenpyr-diethyl 20 g/ha | [9]; Mefenpyr-diethyl 40 g/ha | [9]; Mefenpyr-diethyl 80 g/ha | [9]; applied alone, 20 g/ha | [9]; applied alone, 40 g/ha | [9]; applied alone, 80 g/ha | [9]; applied alone, 120 g/ha | [10]; 10 g/ha | [10]; 20 g/ha | [10]; 40 g/ha | [10]; 80 g/ha | [10]; 120 g/ha | [11]; Mefenpyr-diethyl 20 g/ha | [11]; Mefenpyr-diethyl 40 g/ha | [11]; Mefenpyr-diethyl 80 g/ha | [12]; Mefenpyr-diethyl 20 g/ha | [12]; Mefenpyr-diethyl 40 g/ha | [12]; Mefenpyr-diethyl 80 g/ha | [13]; Mefenpyr-diethyl 20 g/ha | [13]; Mefenpyr-diethyl 40 g/ha | [13]; Mefenpyr-diethyl 80 g/ha
